Experimental data reported in patent EP4424307A1, “PROTECTIVE AGENT FOR USE IN PERITONEAL DIALYSIS” (Zytoprotec GmbH, priority 2023, dated 2024).
Peptide text beside a SMILES is read from it.

Experiments:
[1] = tested on: PD induced hepatic inflammatory response; experiment: Murine chronic PD exposure model, liver histology (NAS, Oil Red O, Sirius Red); format: in vivo; settings: uremic mice with PD, PDF supplemented with Alanyl-Glutamine 8 mM
Description: (§1) The inventors conducted a murine PD exposure experiment resembling chronic PD in healthy and uremic mice: The experiment consisted of n=34 animals in six distinct groups.
(§2) The animals were split in the following groups: • 1) Healthy control animals ("control") • 2) Healthy animals receiving PD treatment (via an indwelling catheter) ("PD") • 3) Healthy animals receiving PD treatment (via an indwelling catheter) supplemented with Alanyl-Glutamine ("PD+AG") • 4) Uremic animals ("uremic") • 5) Uremic animals receiving PD treatment (via an indwelling catheter) ("uremic PD") • 6) Uremic animals receiving PD treatment (via an indwelling catheter) supplemented with Alanyl-Glutamine ("uremic PD+AG")
(§3) All animals of the uremic groups (Groups 4, 5, and 6) were subjected to left-sided 2/3 nephrectomy at day 0 of the study, and to complete right-sided nephrectomy at day 7 of the study, thereby inducing chronic kidney disease.
(§4) All animals receiving PD treatment (Groups 2, 3, 5, and 6) had their indwelling catheter implanted at day 7 of the study.
Animals in groups 2,3, 5, and 6 received daily PDF (Dianeal PD4 3.86% [Baxter, Deerfield, IL, USA]) injections via their indwelling catheter starting from day 14 over the course of six weeks, thereby inducing chronic PDF exposure.
For animals of groups 3 and 6 the daily PDF injections were supplemented with Alanyl-Glutamine (8 mM) over the course of six weeks.
At sacrifice (day 56 of the study), animal livers were subjected to histologic analysis.
NAFLD activity score (NAS) assessment was conducted as previously described (47) on hematoxylin & eosin (H&E) stained hepatic tissue on one facial field image per mouse.
Steatosis hepatis was assessed by semi-quantitative measurement of Oil Red O stained hepatic tissue with one facial field image per mouse.
Fibrosis hepatis was assessed by semi-quantitative measurement of Sirius Red stained hepatic tissue with one facial field image per mouse.

[2] = tested on: acute-phase-response- and inflammation-associated proteins within the liver; experiment: Murine chronic PD exposure model, mass spectrometry proteomics analysis of liver; format: in vivo, mice; settings: liver of uremic animals receiving PD; of 57 proteins dysregulated by PD; p<0.05
Description: as §1, §2, §3, §4
Animals in groups 2,3, 5, and 6 received daily PDF (Dianeal PD4 3.86% [Baxter, Deerfield, IL, USA]) injections via their indwelling catheter starting from day 14 over the course of six weeks, thereby inducing chronic PDF exposure. […]

[3] = tested on: clinical markers of liver injury; experiment: Secondary analysis of phase II crossover trial of Alanyl-Glutamine supplementation to PDF, liver tests; format: in vivo, human; settings: patients on chronic PD, n=41, crossover
Description: To further investigate the effect of Alanyl-Glutamine supplementation to PDF in human PD-induced hepatic (dys)function, the inventors conducted a secondary analysis of a prospective, multicenter, double-blinded, controlled, randomized, dual-period, 2-treatment, crossover, phase II, proof-of-concept study including eight Austrian centers for Alanyl-Glutamine supplementation to the PDF in patients on chronic PD.
This study cohort and its baseline characteristics have already been previously described by Vychytil et al (8).

systemic inflammation = settings: addition to PDF in PD patients; tendency for hs-CRP and IL-6, statistical significance with IL-8; cited from earlier work
[4] = tested on: hepatic reperfusion-injury; settings: rat model; cited from earlier work
[5] = tested on: LPS-induced acute liver injury; settings: mice; cited from earlier work
[6] = tested on: steatohepatitis and fibrosis; settings: murine NAFLD model; cited from earlier work
[7] = H&E liver sections, daily over six weeks, vs uremic PD
[8] = log10 transformed due to skewness

SMILES: C[C@H](N)C(=O)N[C@@H](CCC(N)=O)C(=O)O [Alanyl-Glutamine, L-alanyl-L-glutamine] (H-Ala-Gln-OH)
- areas of hepatocyte ballooning [1, 7]: decreased
- numbers of inflammatory immune cell infiltrates [1, 7]: markedly decreased
- PD induced fibrosis (% area of Sirius Red stained tissue) ([1]; liver sections): trends of improvement
- PD induced steatosis (% area of Oil Red O stained tissue) ([1]; liver sections): trends of improvement
- NAFLD activity score (NAS) ([1]; daily over six weeks, vs uremic PD, Mann Whitney U test): significantly (p<0.05) decreased
- number of acute-phase-response- and inflammation-associated proteins with significantly altered abundance [2]: 11
- GGT, Least squares mean (95% CI) [3, 8]: 1.41 (1.37 to 1.46) U/L
- GOT/AST, Least squares mean (95% CI) [3, 8]: 1.23 (1.19 to 1.27) U/L
- GPT/ALT, Least squares mean (95% CI) [3, 8]: 1.20 (1.15 to 1.25) U/L
- LDH, Least squares mean (95% CI) [3, 8]: 2.30 (2.27 to 2.32) U/L
- LDH, Difference Alanyl-Glutamine-placebo, estimate ± SE ([3]; log10 transformed, p value 0.0206): -0.03 ± 0.01 U/L
- GPT/ALT, Difference Alanyl-Glutamine-placebo, estimate ± SE ([3]; log10 transformed, p value 0.0466): -0.06 ± 0.03 U/L
- GOT/AST, Difference Alanyl-Glutamine-placebo, estimate ± SE ([3]; log10 transformed, p value 0.1877): -0.04 ± 0.03 U/L
- GGT, Difference Alanyl-Glutamine-placebo, estimate ± SE ([3]; log10 transformed, p value 0.4901): -0.02 ± 0.02 U/L
- systemic inflammation (hs-CRP, IL-6, IL-8) (systemic inflammation): attenuate systemic inflammation
- hepatic reperfusion-injury [4]: reduce hepatic reperfusion-injury
- LPS-induced acute liver injury [5]: protect mice against LPS-induced acute liver injury
- steatohepatitis and fibrosis [6]: significantly attenuate steatohepatitis and fibrosis
